Measured values reported in PubChem BioAssay (NCI).
Several values for one entry are separate records, joined by “and”; a condition that tells them apart may be missing. Identical values can stand only once.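 Exposure lasted 48 hours, with cells grown in 96-well plates and compounds tested at five concentrations. GI50 = concentration required for 50% inhibition of growth. At the TGI there is no net growth.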 Where a SMILES comes first, the peptide text is derived from it. The star is where a group is joined. Boc = CC(C)(C)OC(=O)*

Legend:
Assay in all cases: NCI anticancer screen, dose series, 48 h
[1] = system: HCT-116 colon
[2] = system: TK-10 renal
[3] = system: SK-OV-3 ovarian
[4] = system: SK-MEL-5 melanoma
[5] = system: OVCAR-4 ovarian
[6] = system: HS 578T breast
[7] = system: K-562 leukemia
[8] = system: EKVX NSCLC
[9] = system: HT29 colon
[10] = system: SK-MEL-2 melanoma
[11] = system: NCI-H460 lung
[12] = system: RPMI-8226 leukemia
[13] = system: LOX IMVI melanoma

SMILES | GI50 [1] [µM] | TGI [1] | GI50 [2] | TGI [2] | GI50 [3] | TGI [3] [µM] | GI50 [4] [µM] | TGI [4] | TGI [5] [µM] | TGI [6] [µM] | TGI [7] | GI50 [8] | TGI [8] | GI50 [9] | TGI [9] [µM] | GI50 [10] | TGI [11] [µM] | TGI [12] [µM] | TGI [10] [µM] | TGI [13] [µM]
CC[C@@]1(O)C(=O)OCc2c1cc1n(c2=O)Cc2c-1nc1ccccc1c2C=Nc1ccc(N[C@@H]2c3cc4c(cc3[C@@H](c3cc(OC)c(O)c(OC)c3)[C@H]3C(=O)OC[C@@H]32)OCO4)cc1 | 0.0251 | 6.45 µM and 0.653 µM | 2.16 µM and 0.815 µM | 28.5 µM and 3.33 µM | 0.668 µM and 0.141 µM | 9.93 | 0.0255 | 0.309 µM and 0.366 µM | > 56 | > 100 | 19.3 µM and 10.3 µM | 2.51 µM and 0.665 µM | 19.9 µM and 10.9 µM | 0.364 µM and 0.104 µM | > 100 | 2.5 µM and 0.535 µM | – | – | – | –
COc1ccccc1-c1n[nH]c(-c2ccccc2O)n1 | – | > 100 µM | – | > 100 µM | – | > 100 | – | > 100 µM | > 100 | > 100 | > 100 µM | – | – | – | > 100 | – | > 100 | > 100 | > 100 | > 100
CCOC(=O)NC(Nc1cccc(F)c1)(C(F)(F)F)C(F)(F)F | – | > 100 µM | – | > 100 µM | – | > 100 | – | > 100 µM | – | > 100 | > 100 µM | – | > 100 µM | – | > 100 | – | > 100 | > 100 | > 100 | > 100
Brc1nc2c3ccccc3ncn2c1Br | – | > 100 µM | – | > 100 µM | – | > 100 | – | 39.3 µM | 42.7 | – | > 100 µM | – | 95.9 µM | – | > 100 | – | > 100 | > 100 | 82.6 | 77.4
CCOC(=O)NC(OCCN(C)C)(C(F)(F)F)C(F)(F)F | – | > 100 µM | – | > 100 µM | – | > 100 | – | > 100 µM | – | > 100 | > 100 µM | – | > 100 µM | – | > 100 | – | > 100 | > 100 | > 100 | > 100
CCOC(=O)/C(=C\NC[C@@H](C)O)c1nc2ccccc2[nH]1 | – | > 100 µM | – | > 100 µM | – | > 100 | – | > 100 µM | > 100 | – | – | – | > 100 µM | – | > 100 | – | > 100 | 63.3 | – | > 100
CC(C)(C)c1ccc(Oc2ccc(C#N)c(C#N)c2)c(C(C)(C)C)c1 | – | > 60.1 µM | – | > 100 µM | – | > 100 | – | > 100 µM | > 100 | – | > 64.9 µM | – | > 100 µM | – | > 100 | – | > 71.1 | 43.1 | 97.8 | > 54.6
COC(=O)CC[N+]1([O-])CC1 | – | > 100 µM | – | > 100 µM | – | > 100 | – | > 100 µM | > 100 | > 100 | – | – | > 100 µM | – | > 100 | – | > 100 | > 100 | – | > 100
CC12CC(=O)OC(Cc3ccccc31)O2 (centres undefined) | – | > 100 µM | – | > 100 µM | – | > 100 | – | – | – | – | > 100 µM | – | > 100 µM | – | > 100 | – | > 100 | > 100 | > 100 | > 100
COc1nc(N)nc2c1n(C)c[n+]2C | – | > 100 µM | – | > 100 µM | – | > 100 | – | > 100 µM | – | > 100 | > 100 µM | – | > 100 µM | – | > 100 | – | > 100 | > 100 | > 100 | > 100
c1ccc2nc3c(nc2c1)sc1nc2ccccc2n13 | – | > 100 µM | – | > 100 µM | – | > 100 | – | > 100 µM | – | > 100 | > 100 µM | – | > 100 µM | – | > 100 | – | > 100 | > 100 | – | > 100
COc1ccc(-c2c(C#N)c(N)n(C3OCC(O)C(O)C3O)c(=S)c2C#N)cc1 (centres undefined) | – | – | – | > 100 µM | – | > 100 | – | > 100 µM | – | > 100 | > 100 µM | – | – | – | > 100 | – | > 100 | > 100 | > 100 | > 100
CN(C(=O)C12C3C4C1C1C2C3C41C(=O)O)C(C)(C)C (centres undefined) | – | > 100 µM | – | > 100 µM | – | – | – | > 100 µM | > 100 | > 100 | > 100 µM | – | > 100 µM | – | > 100 | – | > 100 | – | > 100 | > 100
COC(=O)C(Cc1c[nH]c2ccccc12)NC(=O)C(Cc1c[nH]c2ccccc12)NC(=O)C(Cc1c[nH]c2ccccc12)NC(=O)C(Cc1c[nH]c2ccccc12)NC(=O)C(Cc1c[nH]c2ccccc12)NC(=O)OC(C)(C)C (centres undefined) (Boc-WWWWW-OMe; configuration not given here) | – | > 100 µM | – | > 100 µM | – | – | – | 56.5 µM | > 100 | – | > 100 µM | – | – | – | > 100 | – | > 100 | > 100 | > 100 | > 100
N#CC12CCC(O)C(CC1)C2=O (centres undefined) | – | > 100 µM | – | > 100 µM | – | > 100 | – | > 100 µM | > 100 | – | > 100 µM | – | > 100 µM | – | > 100 | – | > 100 | 57.1 | > 100 | 39.3
CC(C)C(=O)CC(Sc1ccc(N)cc1)c1ccccc1 (centres undefined) | – | 28.7 µM | – | > 100 µM | – | 58.4 | – | 68.2 µM | – | 67.6 | > 100 µM | – | – | – | > 100 | – | 74.9 | 63.1 | 61.8 | 33.8
Cc1ccc(-n2nnc3c(NNc4ccccc4)n[nH]c(=O)c32)cc1 | – | > 100 µM | – | 75.4 µM | – | – | – | > 100 µM | > 100 | – | > 100 µM | – | > 100 µM | – | > 100 | – | > 100 | > 100 | > 100 | > 100
C=C[C@@]1(C)CC(=O)[C@]2(O)[C@@]3(C)[C@@H](OC(C)=O)CCC(C)(C)[C@@H]3[C@H](O)[C@H](OC(C)=O)[C@@]2(C)O1 | – | > 100 µM | – | – | – | > 100 | – | – | > 100 | – | > 100 µM | – | > 100 µM | – | > 100 | – | > 100 | – | > 100 | > 100
CC1CC/C(=C\c2ccc(Cl)cc2)C(=O)/C1=C\c1ccc(Cl)cc1 (centres undefined) | – | > 100 µM | – | 79.8 µM | – | > 100 | – | 40.1 µM | – | 93.8 | > 100 µM | – | 63.7 µM | – | > 100 | – | – | – | 37.9 | > 100
